Patent US20030078251A1, “Benzoxazepinones and their use as squalene synthase inhibitors” (priority 2000, published 2003)
pIC50: −log10 of the molar value.

Tests used:
squalene synthase = molecular target: T1, squalene synthase (Homo sapiens, UniProt P37268); assay: Squalene synthase inhibiting activity (Test Example 1); format: biochemical; details: enzyme solution from human hepatic cancer cell HepG2; 5 μM [1-3H] farnesyl pyrophosphate, 37° C., 45 minutes; read-out: Inhibiting activity (IC50, 10^−9M)
T1 construct: endogenous in cells; host or cells: HepG2 (human hepatic cancer cells); sediment of the 105000 x g centrifugation (microsomal fraction)
T1 sequence (P37268 1-417): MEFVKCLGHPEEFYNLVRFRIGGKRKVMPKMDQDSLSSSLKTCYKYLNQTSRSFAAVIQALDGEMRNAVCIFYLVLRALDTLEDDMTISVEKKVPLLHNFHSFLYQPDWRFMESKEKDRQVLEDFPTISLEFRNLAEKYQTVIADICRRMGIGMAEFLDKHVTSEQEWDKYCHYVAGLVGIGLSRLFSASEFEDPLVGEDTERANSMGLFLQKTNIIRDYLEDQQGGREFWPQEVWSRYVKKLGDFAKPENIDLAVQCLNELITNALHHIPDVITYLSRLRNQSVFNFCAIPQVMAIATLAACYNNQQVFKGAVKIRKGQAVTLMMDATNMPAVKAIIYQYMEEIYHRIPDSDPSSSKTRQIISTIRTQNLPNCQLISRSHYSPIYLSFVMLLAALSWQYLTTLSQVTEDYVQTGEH
Procedure: Squalene Synthase Inhibiting Activity
The squalene synthase inhibiting activity was measured using an enzyme solution obtained according to a preparing method described below as follows:
That is, an enzyme solution (protein 0.8 μg) prepared according to the following preparing method was added to a solution containing 5 μM [1-^3H] farnesyl pyrophosphate (specific activity […]), 1 mM NADPH (reduced type nicotinamide adenine dinucleotide phosphate), 5 mM MgCl2, 6 mM glutathione, 100 mM potassium phosphate buffer (pH 7.4) and a test drug (added as an aqueous solution or DMSO solution)(total amount 50 μl), which was reacted at 37° C. for 45 minutes. 150 μl of a mixed solution of chloroform and methanol (1:2) was added to stop the reaction, and 50 μl of chloroform and 50 μl of a 3N sodium hydroxide solution were added. 50 μl of the chloroform layer (lower layer) containing the reaction product, a main component of which is squalene, and 3 ml of toluene series liquid scintillator were mixed, and the radioactivity thereof was measured by a liquid scintillation counter.
The squalene synthase inhibiting activity was shown by the concentration at which 50% of the radioactivity […] into the chloroform layer (IC50, molar concentration (M)).
Preparation of Human Enzyme Solution
Human hepatic cancer cell HepG2 (about 1×10^9 cells) was grown in Dulbecco's modified Eagle medium (37° C., in the presence of 5%CO2) containing 10% bovine fetal serum, the resulting cells were suspended in 10 ml of ice-cooled buffer [100 mM potassium phosphate buffer (pH 7.4), 30 mM nicotinamide, 2.5 mM MgCl2], and ruptured by the ultrasonication (30 seconds, 2 times). The resulting sonicate was centrifuged at 10000× g for 20 minutes (4° C.). The resulting supernatant was centrifuged at 105000× g for 90 minutes (4° C.), then the sediment was suspended in an ice-cooled 100 mM potassium phosphate buffer (pH 7.4), and centrifuged again at 105000× g for 90 minutes (4° C.). This was suspended in an ice-cooled 100 mM potassium phosphate buffer (pH 7.4) (protein concentration about 4 mg/ml), which was used as an enzyme solution.

For `COc1cccc([C@H]2O[C@H](CC(=O)Nc3cc(CCC(=O)O)ccc3F)C(=O)N(CC(C)(C)CO)c3ccc(Cl)cc32)c1OC` [Example 53, 3-[3-[[[(3R,5S)-7-chloro-5-(2,3-dimethoxyphenyl)-1-(3-hydroxy-2,2-dimethylpropyl)-2-oxo-1,2,3,5-tetrahydro-4,1-benzoxazepin-3-yl]acetyl]amino]-4-fluorophenyl]propionic Acid], the pIC50 (squalene synthase) was 7.40 and the melting point was 151 to 152 °C.

For `COc1cccc([C@H]2O[C@H](CC(=O)NCCc3occc3C(=O)O)C(=O)N(CC(C)(C)CO)c3ccc(Cl)cc32)c1OC` [Example 26, 2-[2-[[[(3R,5S)-7-chloro-5-(2,3-dimethoxyphenyl)-1-(2,2-dimethyl-3-hydroxypropyl)-2-oxo-1,2,3,5-tetrahydro-4,1-benzoxazepin-3-yl]acetyl]amino]ethyl]furan-3-carboxylic acid], the pIC50 (squalene synthase) was 7.60 and the melting point was 126 to 129 °C.

Work on `CCCS(=O)(=O)NC(=O)C[C@H]1O[C@H](c2cccc(OC)c2OC)c2cc(Cl)ccc2N(CC(C)(C)CO)C1=O` [Example 2, (3R,5S)-N-propanesulfonyl-7-chloro-5-(2,3-dimethoxyphenyl)-1-(3-hydroxy-2,2-dimethylpropyl)-2-oxo-1,2,3,5-tetrahydro-4,1-benzoxazepine-3-acetamide] yielded a pIC50 (squalene synthase) of 7.27 and a melting point of 135 to 137 °C.

`COc1cccc([C@H]2O[C@H](CC(=O)N[C@H](C)C(=O)O)C(=O)N(CC(C)(C)C)c3ccc(Cl)cc32)c1OC` [Example 18, (2R)-2-[[(3R,5S)-7-chloro-5-(2,3-dimethoxyphenyl)-1-neopentyl-2-oxo-1,2,3,5-tetrahydro-4,1-benzoxazepin-3-yl]acetyl]aminopropionic Acid] showed a pIC50 (squalene synthase) of 8.00 and a melting point of 184 to 186 °C.

With `COc1cccc([C@H]2O[C@H](CC(=O)NCc3ccoc3C(=O)O)C(=O)N(CC(C)(C)CO)c3ccc(Cl)cc32)c1OC` [Example 30, 3-[[[[(3R,5S)-7-chloro-5-(2,3-dimethoxyphenyl)-1-(2,2-dimethyl-3-hydroxypropyl)-2-oxo-1,2,3,5-tetrahydro-4,1-benzoxazepin-3-yl]acetyl]amino]methyl]furan-2-carboxylic acid] the pIC50 (squalene synthase) was 8.04 and the melting point was 125 to 128 °C.

In the case of `COc1cccc([C@H]2O[C@H](CC(=O)NC[C@H]3CC[C@H](C(=O)O)CC3)C(=O)N(CC(C)(C)COC(C)=O)c3ccc(Cl)cc32)c1OC` [Example 24, trans-4-[[(3R,5S)-1-(3-acetoxy-2,2-dimethylpropyl)-7-chloro-5-(2,3-dimethoxyphenyl)-2-oxo-1,2,3,5-tetrahydro-4,1-benzoxazepin-3-yl]acetyl]aminomethyl-1-cyclohexanecarboxylic acid], the pIC50 (squalene synthase) was 6.77.

In the case of `COc1cccc([C@H]2O[C@H](CC(=O)NCc3ccc(CC(=O)O)cc3)C(=O)N(CC(C)(C)CO)c3ccc(Cl)cc32)c1OC` [Example 61, 4-[[[(3R,5S)-7-chloro-5-(2,3-dimethoxyphenyl)-1-(3-hydroxy-2,2-dimethylpropyl)-2-oxo-1,2,3,5-tetrahydro-4,1-benzoxazepin-3-yl]acetyl]aminomethyl]phenylacetic acid], the pIC50 (squalene synthase) was 7.68 and the melting point was 129 to 132 °C.

Compound `COc1cccc([C@H]2O[C@H](CC(=O)Nc3cc(CCC(=O)O)ccc3C)C(=O)N(CC(C)(C)CO)c3ccc(Cl)cc32)c1OC` [Example 55, 3-[3-[[(3R,5S)-7-chloro-5-(2,3-dimethoxyphenyl)-1-(3-hydroxy-2,2-dimethylpropyl)-2-oxo-1,2,3,5-tetrahydro-4,1-benzoxazepin-3-yl]acetyl]amino-4-methylphenyl]propionic Acid] has a pIC50 (squalene synthase) of 7.80 and a melting point of 154 to 155 °C.

`COc1cccc([C@H]2O[C@H](CC(=O)NCc3cccc(CCC(=O)O)c3)C(=O)N(CC(C)(C)CO)c3ccc(Cl)cc32)c1OC` [Example 64, 3-[3-[[[(3R,5S)-7-chloro-5-(2,3-dimethoxyphenyl)-1-(3-hydroxy-2,2-dimethylpropyl)-2-oxo-1,2,3,5-tetrahydro-4,1-benzoxazepin-3-yl]acetyl]aminomethyl]phenyl]propionic Acid] gave a pIC50 (squalene synthase) of 7.43.

Compound `COc1cccc([C@H]2O[C@H](CC(=O)Nc3cccc(CCC(=O)O)c3)C(=O)N(CC(C)(C)C)c3ccc(Cl)cc32)c1OC` [Example 60, 3-[3-[[(3R,5S)-7-chloro-5-(2,3-dimethoxyphenyl)-1-neopentyl-2-oxo-1,2,3,5-tetrahydro-4,1-benzoxazepin-3-yl]acetyl]aminophenyl]propionic Acid] has a pIC50 (squalene synthase) of 7.30 and a melting point of 172 to 173 °C.

`COc1cccc([C@H]2O[C@H](CC(=O)Nc3cccc(CCC(=O)O)c3)C(=O)N(CC(C)(C)CO)c3ccc(Cl)cc32)c1OC` [Example 35, 3-[3-[[(3R,5S)-7-chloro-5-(2,3-dimethoxyphenyl)-1-(3-hydroxy-2,2-dimethylpropyl)-2-oxo-1,2,3,5-tetrahydro-4,1-benzoxazepin-3-yl]acetyl]aminophenyl]propionic Acid] gave a pIC50 (squalene synthase) of 6.92 and a melting point of 141 to 144 °C.

`COc1cccc([C@H]2O[C@H](CC(=O)NC[C@H]3CC[C@H](C(=O)O)CC3)C(=O)N(CC(C)(C)CO)c3ccc(Cl)cc32)c1OC` [Example 23, trans-4-[[(3R,5S)-7-chloro-5-(2,3-dimethoxyphenyl)-1-(3-hydroxy-2,2-dimethylpropyl)-2-oxo-1,2,3,5-tetrahydro-4,1-benzoxazepin-3-yl]acetyl]aminomethyl-1-cyclohexanecarboxylic acid] gave a pIC50 (squalene synthase) of 7.00.

`COc1ccc(CCC(=O)O)cc1NC(=O)C[C@H]1O[C@H](c2cccc(OC)c2OC)c2cc(Cl)ccc2N(CC(C)(C)CO)C1=O` [Example 37, 3-[3-[[(3R,5S)-7-chloro-5-(2,3-dimethoxyphenyl)-1-(3-hydroxy-2,2-dimethylpropyl)-2-oxo-1,2,3,5-tetrahydro-4,1-benzoxazepin-3-yl]acetyl]amino-4-methoxyphenyl]propionic Acid] gave a pIC50 (squalene synthase) of 7.03.
